The compounds below were run on HBV (assay: HBV-DNA antiviral assay using HepG2.117 cells (intracellular HBV DNA by qPCR)). Conditions: HBV DNA inhibition, 3 days incubation, 2% DMSO.
Assay type: cell-based, genotype D HBV
Experimental: The following assay procedure describes the HBV antiviral assay, using HepG2.117 cells, which carry a stably integrated genotype D HBV genome under the control of a Tet-off promoter, and intracellular HBV DNA quantification as endpoint. Cell viability is assessed in parallel by measuring the intracellular ATP content using CellTiter-Glo 2.0 (Promega).
On day 0, HepG2.117 cells (which are maintained in routine cell culture with doxycycline present in the medium at a final concentration of 1 μg/mL) were seeded in 96-well plates (white with clear bottom) at a density of 2.0×10^4 cells/well (0.1 mL/well) in medium without doxycycline to induce pgRNA transcription and subsequent formation of HBV particles. The cells were incubated at 37° C. and 5% CO2.
On day 1, medium was removed from each well, the test articles were diluted in culture medium without doxcycyline and 100 μL was added to cell culture wells (9 concentrations, 4-fold dilution). For each plate, 6 untreated (merely DMSO) wells were included. The final concentration of DMSO in the culture medium was 2%. Each plate was prepared in duplicate (one for HBV DNA extraction, one for CellTiter-Glo 2.0 measurement). The cells were incubated at 37° C. and 5% CO2 for 3 days.
On day 4, cell viability was assessed using CellTiter-Glo 2.0 and cell lysates were prepared for HBV DNA extraction and subsequent quantification by qPCR.
HBV DNA Quantification by qPCR
Medium was removed from each well and 100 μL of 0.33% NP-40 in H2O was added to each well. Plates were sealed, incubated at 4° C. for 5 mins, vortexed extensively and centrifuged briefly. Next, 35 μL of lysate was added to 65 μL QuickExtract DNA Extraction Solution (Epicentre) in a PCR plate for each well. PCR plate was incubated at 65° C. for 6 mins, 98° C. for 2 mins and finally cooled to 4° C. HBV DNA was then quantified by qPCR with HBV-specific primers and probes as specified in Table 1 using the Bio-Rad SSOAdvanced Universal Probes Supermix on a CFX96 machine (Bio-Rad). The PCR cycle program consisted of 95° C. for 3 mins, followed by 40 cycles at 95° C. for 10 sec and 60° C. for 30 sec.
A DNA standard was prepared by dilution of an IDT gBlock corresponding to the amplicon with concentrations ranging from 10^2 to 10^8 copies/input (i.e. per 4 μL) and used to generate a standard curve by plotting Cq values vs. HBV DNA standard concentration. The quantity of HBV DNA in each sample was determined by interpolating from the standard curve.
Cell viability was calculated as follows: % Cell viability=(luminescence value of test sample)/(average luminescence value of 2% DMSO control)×100%. HBV DNA inhibition was calculated as follows: 100−(HBV DNA copy number of test sample)/(average HBV DNA copy number of 2% DMSO control)×100%. No normalization to entecavir was required due to the excellent dynamic window of this assay. The CC50, EC50 and EC90 values were determined by dose-response curves fitted by GraphPad Prism using “log (agonist) vs. response—Variable slope”.

Compound	EC50
CNC(=O)c1ccc(-n2c(=O)c3c(n4ncc(Cc5ccccc5)c24)CN(C(=O)c2ccc(Br)c(C(F)(F)F)c2)CC3)cc1 [Compound 4, 4-[5-benzyl-12-[4-bromo-3-(trifluoromethyl)benzoyl]-8-oxo-2,3,7,12-tetrazacyclo[7.4.0.0^2,6]trideca-1(9),3,5-trien-7-yl]-N-methyl-benzamide]	< 50 nM
CC(C)Cc1cnn2c3c(c(=O)n(-c4ccc(-c5nncn5C)cc4)c12)C[C@@H](C)N(C(=O)c1ccc(Br)c(Cl)c1)C3 [Compound 60a, (11R)-12-(4-bromo-3-chlorobenzoyl)-11-methyl-7-[4-(4-methyl-1,2,4-triazol-3-yl)phenyl]-5-(2-methylpropyl)-2,3,7,12-tetraazatricyclo[7.4.0.0^{2,6}]trideca-1(9),3,5-trien-8-one]	< 50 nM

Same assay, conditions: Hepatitis B virus, 72 h, HBV DNA inhibition, 3 days incubation, 2% DMSO

Compound	EC50
CNC(=O)c1ccc(-n2c(=O)c3c(n4ncc(Cc5ccsc5)c24)CN(C(=O)c2ccc(Br)c(C(F)(F)F)c2)CC3)cc1 [Compound 20, 4-[12-[4-bromo-3-(trifluoromethyl)benzoyl]-8-oxo-5-(3-thienylmethyl)-2,3,7,12-tetrazatricyclo[7.4.0.0^2,6]trideca-1(9),3,5-trien-7-yl]-N-methyl-benzamide]	< 50 nM
Cc1nn[nH]c1-c1ccc(-n2c(=O)c3c(n4ncc(CC(C)C)c24)CN(C(=O)c2ccc(Br)c(Cl)c2)[C@H](C)C3)cc1 (stereo in doubt) [Compound 64a, rac-(11R)-12-(4-bromo-3-chloro-benzoyl)-5-isobutyl-11-methyl-7-[4-(4-methyl-1H-triazol-5-yl)phenyl]-2,3,7,12-tetrazatricyclo[7.4.0.0^2,6]trideca-1(9),3,5-trien-8-one]	< 50 nM
Cc1nnc(-c2ccc(-n3c(=O)c4c(n5ncc(Cc6ccccc6)c35)CN(C(=O)c3ccc(Br)c(Cl)c3)CC4)cc2)[nH]1 [Compound 1, 5-benzyl-12-(4-bromo-3-chloro-benzoyl)-7-[4-(5-methyl-4H-1,2,4-triazol-3-yl)phenyl]-2,3,7,12-tetrazatricyclo[7.4.0.0^2,6]trideca-1(9),3,5-trien-8-one]	< 50 nM
Cc1nnc(-c2ccc(-n3c(=O)c4c(n5ncc(Cc6ccccc6)c35)CN(C(=O)c3ccc(Br)c(Cl)c3)[C@H](C)C4)cc2)[nH]1 (stereo in doubt) [Compound 53a, rac-(11R)-5-benzyl-12-(4-bromo-3-chloro-benzoyl)-11-methyl-7-[4-(5-methyl-4H-1,2,4-triazol-3-yl)phenyl]-2,3,7,12-tetrazatricyclo[7.4.0.0^2,6]trideca-1(9),3,5-trien-8-one]	< 50 nM
CNC(=O)c1ccc(-n2c(=O)c3c(n4ncc(CC(C)C)c24)CN(C(=O)c2ccc(Cl)c(C(F)(F)F)c2)[C@H](C)C3)cc1 (stereo in doubt) [Compound 54a, N-methyl-4-[rac-(11R)-12-[4-chloro-3-(trifluoromethyl)benzoyl]-5-isobutyl-11-methyl-8-oxo-2,3,7,12-tetrazatricyclo[7,4.0.0^2,6]trideca-1(9),3,5-trien-7-yl]benzamide]	< 50 nM
Cc1nn[nH]c1-c1cc(-n2c(=O)c3c(n4ncc(Cc5ccccc5)c24)CN(C(=O)c2ccc(Br)c(C(F)(F)F)c2)[C@H](C)C3)nn1C (stereo in doubt) [Compound 83a, rac-(11R)-5-benzyl-12-[4-bromo-3-(trifluoromethyl)benzoyl]-11-methyl-7-[1-methyl-5-(4-methyl-1H-triazol-5-yl)pyrazol-3-yl]-2,3,7,12-tetrazatricyclo[7.4.0.0^2,6]trideca-1(9),3,5-trien-8-one]	< 50 nM
CNc1n[nH]c2cc(-n3c(=O)c4c(n5ncc(CC(C)C)c35)CN(C(=O)c3ccc(Br)c(C(F)(F)F)c3)[C@H](C)C4)ccc12 (stereo in doubt) [Compound 61a, rac-(11R)-12-[4-bromo-3-(trifluoromethyl)benzoyl]-5-isobutyl-11-methyl-7-[3-(methylamino)-1H-indazol-6-yl]-2,3,7,12-tetrazatricyclo[7.4.0.0^2,6]trideca-1(9),3,5-trien-8-one]	< 50 nM
CNC(=O)c1ccc(-n2c(=O)c3c(n4ncc(CC(C)C)c24)CN(C(=O)c2ccc(Br)c(C(F)(F)F)c2)[C@H](C)C3)cc1 (stereo in doubt) [Compound 50a, N-methyl-4-[rac-(11R)-12-[4-bromo-3-(trifluoromethyl)benzoyl]-5-isobutyl-11-methyl-8-oxo-2,3,7,12-tetrazatricyclo[7.4.0.0^2,6]trideca-1(9),3,5-trien-7-yl]benzamide]	< 50 nM
CNC(=O)c1ccc(-n2c(=O)c3c(n4ncc(Cc5ccccc5)c24)CN(C(=O)c2ccc(Br)c(C(F)(F)F)c2)[C@H](C)C3)cc1 (stereo in doubt) [Compound 38a, N-methyl-4-[rac-(11R)-5-benzyl-12-[4-bromo-3-(trifluoromethyl)benzoyl]-11-methyl-8-oxo-2,3,7,12-tetrazatricyclo[7.4.0.0^2,6]trideca-1(9),3,5-trien-7-yl]benzamide]	< 50 nM
CC[C@@H]1Cc2c(n3ncc(Cc4ccccc4)c3n(-c3ccc4c(NC)n[nH]c4c3)c2=O)CN1C(=O)c1ccc(Br)c(C(F)(F)F)c1 (stereo in doubt) [Compound 84a, rac-(11R)-5-benzyl-12-[4-bromo-3-(trifluoromethyl)benzoyl]-11-ethyl-7-[3-(methylamino)-1H-indazol-6-yl]-2,3,7,12-tetrazatricyclo[7.4.0.0^2,6]trideca-1(9),3,5-trien-8-one]	< 50 nM
Cc1cnnn1-c1ccc(-n2c(=O)c3c(n4ncc(Cc5ccccc5)c24)CN(C(=O)c2ccc(Br)c(C(F)(F)F)c2)CC3)cc1 [Compound 34, 5-benzyl-12-[4-bromo-3-(trifluoromethyl)benzoyl]-7-[4-(5-methyltriazol-1-yl)phenyl]-2,3,7,12-tetrazatricyclo[7.4.0.0^2,6]trideca-1(9),3,5-trien-8-one]	< 50 nM
Cc1cnn(-c2ccc(-n3c(=O)c4c(n5ncc(CC(C)C)c35)CN(C(=O)c3ccc(Br)c(C(F)(F)F)c3)[C@H](C)C4)cc2)c1 (stereo in doubt) [Compound 98a, rac-(11R)-12-[4-bromo-3-(trifluoromethyl)benzoyl]-5-isobutyl-11-methyl-7-[4-(4-methylpyrazol-1-yl)phenyl]-2,3,7,12-tetrazatricyclo[7.4.0.0^2,6]trideca-1(9),3,5-trien-8-one]	< 50 nM
C[C@H]1Cc2c(n3ncc(CC4CCC4)c3n(-c3ccc(-c4nncn4C)cc3)c2=O)CN1C(=O)c1ccc(Br)c(Cl)c1 (stereo in doubt) [Compound 48b, rac-(11S)-12-(4-bromo-3-chloro-benzoyl)-5-(cyclobutylmethyl)-11-methyl-7-[4-(4-methyl-1,2,4-triazol-3-yl)phenyl]-2,3,7,12-tetrazatricyclo[7.4.0.0^2,6]trideca-1(9),3,5-trien-8-one]	50 to 500 nM
C[C@@H]1Cc2c(n3ncc(CC4CCC4)c3n(-c3ccc(-c4nncn4C)cc3)c2=O)CN1C(=O)c1ccc(Cl)c(C(F)(F)F)c1 (stereo in doubt) [Compound 51a, rac-(11R)-12-[4-chloro-3-(trifluoromethyl)benzoyl]-5-(cyclobutylmethyl)-11-methyl-7-[4-(4-methyl-1,2,4-triazol-3-yl)phenyl]-2,3,7,12-tetrazatricyclo[7.4.0.0^2,6]trideca-1(9),3,5-trien-8-one]	< 50 nM

— patent US11820773B2, “Tricyclic compounds” (ALIGOS THERAPEUTICS, INC., priority 2020, dated 2023)
